This experiment has as its target CDK4/CyclinD1 (Homo sapiens, UniProt P11802). The experiment in a line: CDK4/CyclinD1 Flashplate assay, 96-well format, biotinylated-Rb peptide substrate. The class given is biochemical. Here is the method: This is a CDK4/CyclinD1 kinase assay in a 96-well Streptavidin-coated Flashplate with a biotinylated-Rb peptide substrate.
Each point is tested in duplicate
Biotinylated-Rb: Biotin-[…]
• 1. Prepare substrate: 1 mg/ml solution made fresh in PBS. • 2. Add 100 μg per well to the Flashplate. • 3. Incubate for 2 hours at RT. • 4. From 10 mM inhibitor stocks in DMSO, make 1 mM, 300 μM, 100 μM, 30 μM and 10 μM series of dilution in DMSO. • 5. Wash the Flashplate 3 times with 300 μl PBS to remove unbound peptide substrate. • 6. Add the CDK4/CyclinD1 kinase: 70 ng per well, in a volume of 90 μl in kinase buffer (except for “no enzyme” control wells). • 7. Add 1 μl^1 per well of inhibitor to test 10 μM, 3 μM, 1 μM, 0.3 μM and 0.1 μM in final concentration per 100 μl in each well. • 8. Shake gently the Flashplate 1 minute. • 9. Incubate 30 minutes on wet ice. • 10. Initiate the reaction with 10 μl kinase buffer containing 1 μM final cold ATP and 1 μCi final ^33P-ATP per well. • 11. Shake gently the Flashplate 1 minute. • 12. Incubate 45 minutes at RT (no shaking). • 13. Wash the Flashplate 3 times with 300 μl PBS • 14. Count to detect the incorporation of ^33P-ATP by the kinase to the Rb phosphorylation site.
CDK4/CyclinD1, sequence (P11802 whole entry, species assumed): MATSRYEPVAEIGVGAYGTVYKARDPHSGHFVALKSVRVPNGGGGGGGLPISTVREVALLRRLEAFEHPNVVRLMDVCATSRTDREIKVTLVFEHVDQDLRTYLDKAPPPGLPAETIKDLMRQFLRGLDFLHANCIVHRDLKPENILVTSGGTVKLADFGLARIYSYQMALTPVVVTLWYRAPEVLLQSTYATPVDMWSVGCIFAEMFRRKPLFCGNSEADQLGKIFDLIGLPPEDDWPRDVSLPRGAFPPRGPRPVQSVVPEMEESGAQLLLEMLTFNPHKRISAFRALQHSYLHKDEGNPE
CDK4/CyclinD1, sequence (P24385 whole entry partner, species assumed): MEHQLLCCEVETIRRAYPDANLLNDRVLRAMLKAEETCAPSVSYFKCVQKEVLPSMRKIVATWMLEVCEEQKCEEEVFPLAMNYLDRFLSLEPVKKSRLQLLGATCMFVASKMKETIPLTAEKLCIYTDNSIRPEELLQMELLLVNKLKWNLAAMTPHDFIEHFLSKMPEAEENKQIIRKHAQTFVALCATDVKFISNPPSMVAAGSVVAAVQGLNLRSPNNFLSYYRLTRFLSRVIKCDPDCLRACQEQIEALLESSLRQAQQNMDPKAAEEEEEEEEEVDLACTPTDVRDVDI
Broadly, the IC50 is the midpoint of a concentration-inhibition curve. Low readings indicate greater potency in that assay, high ones weaker potency in that assay. On to `CC[C@@H](CO)Nc1ccc(S(=O)(=O)Oc2ccc3[nH]c(NC(=O)C4CC4)nc3c2)cc1` [Example 60-r, 4-(1S-Hydroxymethyl-propylamino)-benzenesulfonic acid 2-(cyclopropanecarbonyl-amino)-1H-benzoimidazol-5-yl ester], for which the midpoint of inhibition, the IC50, lay at 0.6 µM. `O=C(Nc1nc2cc(OS(=O)(=O)c3ccc(NCCO)cc3)ccc2[nH]1)C1CC1` [Example 60-c, 4-(2-Hydroxy-ethylamino)-benzenesulfonic acid 2-(cyclopropanecarbonyl-amino)-1H-benzoimidazol-5-yl ester] had an IC50 of 0.34 µM. Against the preceding molecule, the IC50 is about 1.8-fold lower. As a reminder, the inhibition is the relative decrease from the control value, in per cent. `COC(=O)Nc1nc2cc(OS(=O)(=O)c3ccc(OCC(=O)N4CCN(C)CC4)cc3)ccc2[nH]1` [Example 66-a, 4-[2-(4-Methyl-piperazin-1-yl)-2-oxo-ethoxy]-benzenesulfonic acid 2-methoxycarbonylamino-1H-benzoimidazol-5-yl ester]: the inhibition at 10 µM came to 19%. The molecule `CCN(CC)CCCNC(=O)COc1ccc(S(=O)(=O)Oc2ccc3[nH]c(NC(=O)OC)nc3c2)cc1` [Example 66-b, 4-[(3-diethylamino-propylcarbamoyl)-methoxy]-benzenesulfonic acid 2-methoxycarbonylamino-1H-benzoimidazol-5-yl ester] had an IC50 of 3.05 µM.

`O=C(NCCCn1ccnc1)Nc1nc2cc(OS(=O)(=O)c3ccc(NC4CCCC4)cc3)ccc2[nH]1` [Example 58-p, 4-Cyclopentylamino-benzenesulfonic acid 2-[3-(3-imidazol-1-yl-propyl)-ureido]-1H-benzoimidazol-5-yl ester] yielded a half-inhibitory concentration (IC50) of 0.6 µM. This IC50 lies about 5.1-fold lower than the previous one. On the same count and under the same terms, with `O=C(Nc1nc2cc(OS(=O)(=O)c3ccc(NCCN4CCCC4)cc3)ccc2[nH]1)C1CC1` [Example 60-g, 4-(2-Pyrrolidin-1-yl-ethylamino)-benzenesulfonic acid 2-(cyclopropanecarbonyl-amino)-1H-benzoimidazol-5-yl ester] the figure was 1.5 µM. On the same count and under the same terms, the result for `CNc1ccc(S(=O)(=O)Oc2ccc3[nH]c(NC(=O)C4CC4)nc3c2)cc1` [Example 60-b, 4-Methylamino-benzenesulfonic acid 2-(cyclopropanecarbonyl-amino)-1H-benzoimidazol-5-yl ester] reads 0.15 µM; that for “4-Benzylamino-benzenesulfonic acid 2-(cyclopropanecarbonyl-amino)-1H-benzoimidazol-5-yl ester [Example 60-a]”, 0.8 µM. Take `CC(CO)Nc1ccc(S(=O)(=O)Oc2ccc3[nH]c(NC(=O)NCCN4CCOCC4)nc3c2)cc1` (stereo not drawn) [Example 78-i, 4-(2-Hydroxy-1-methyl-ethylamino)-benzenesulfonic acid 2-[3-(2-morpholin-4-yl-ethyl)-ureido]-1H-benzoimidazol-5-yl ester]: the inhibition at 10 µM was found to be 97%.

Molecule `CC(C)(CO)CNc1ccc(S(=O)(=O)Oc2ccc3[nH]c(NC(=O)C4CC4)nc3c2)cc1` [Example 60-l, 4-(3-Hydroxy-2,2-dimethyl-propylamino)-benzenesulfonic acid 2-(cyclopropanecarbonyl-amino)-1H-benzoimidazol-5-yl ester] gave an IC50 of 0.4 µM. The same measure, in the same setting: with `O=C(Nc1nc2cc(OS(=O)(=O)c3ccc(NCCCCO)cc3)ccc2[nH]1)C1CC1` [Example 60-e, 4-(4-Hydroxy-butylamino)-benzenesulfonic acid 2-(cyclopropanecarbonyl-amino)-1H-benzoimidazol-5-yl ester] the figure was 0.9 µM. Consider `COCCNC(=O)Nc1nc2cc(OS(=O)(=O)c3ccc(OCc4ccccc4)cc3)ccc2[nH]1` [Example 78-o, 4-Benzyloxy-benzenesulfonic acid 2-[3-(2-methoxy-ethyl)-ureido]-1H-benzoimidazol-5-yl ester], for which the inhibition at 10 µM was determined as 54%. Turning to `COC(=O)Nc1nc2cc(OS(=O)(=O)c3ccc(NC(C)CO)cc3)ccc2[nH]1` (stereo not drawn) [Example 68-b, 4-(2-hydroxy-1-methyl-ethylamino)-benzenesulfonic acid 2-methoxycarbonylamino-1H-benzoimidazol-5-yl ester], the inhibition at 10 µM is 78%.

Turning to `O=C(Nc1nc2cc(OS(=O)(=O)c3ccc(NC4CN5CCC4CC5)cc3)ccc2[nH]1)C1CC1` (stereo not drawn) [Example 60-v, 4-(1-Aza-bicyclo[2.2.2]-oct-3-ylamino)-benzenesulfonic acid 2-(cyclopropane-carbonyl-amino)-1H-benzoimidazol-5-yl ester], the IC50 amounted to 4.2 µM.

The molecule `COC(=O)Nc1nc2ccc(OS(=O)(=O)c3ccc(OCc4ccccc4)cc3)cc2[nH]1` [Example 63, 4-benzyloxy-benzenesulfonic acid 2-methoxycarbonylamino-1H-benzoimidazol-5-yl ester] gave an IC50 of 1.5 µM.

Turning to `CCNC(=O)Nc1nc2cc(OS(=O)(=O)c3ccc(NCCOC)cc3)ccc2[nH]1` [Example 78-h, 4-(2-Methoxy-ethylamino)-benzenesulfonic acid 2-[3-(2-ethyl)-ureido]-1H-benzoimidazol-5-yl ester], the inhibition at 10 µM amounted to 90%. The molecule `NC(=O)C1CCCN1C(=O)Nc1nc2cc(OS(=O)(=O)c3ccc(NC4CCCC4)cc3)ccc2[nH]1` (stereo not drawn) [Example 58-ae, 4-Cyclopentylamino-benzenesulfonic acid 2-[(2S-carbamoyl-pyrrolidine-1-carbonyl)-amino]-1H-benzoimidazol-5-yl ester] gave an IC50 of 1.49 µM.

As to `COC(=O)Nc1nc2cc(OS(=O)(=O)c3ccccc3C#N)ccc2[nH]1` [Example 62-n, 2-Cyano-benzenesulfonic acid 2-methoxycarbonylamino-1H-benzoimidazol-5-yl ester], the IC50 came to 1 µM.

Turning to `COCCNC(=O)Nc1nc2cc(OS(=O)(=O)c3ccc(NCCN4CCOCC4)cc3)ccc2[nH]1` [Example 78-s, 4-(2-Morpholin-4-yl-ethylamino)-benzenesulfonic acid 2-[3-(2-methoxy-ethyl)-ureido]-1H-benzoimidazol-5-yl ester], the inhibition at 10 µM came out at 88%. `COC(=O)Nc1nc2ccc(OS(=O)(=O)c3ccc(NCC4CC4)cc3)cc2[nH]1` [Example 67, 4-(cyclopropylmethyl-amino)-benzene sulfonic acid 2-methoxycarbonylamino-1H-benzoimidazol-5-yl ester]: the inhibition at 10 µM turned out to be 91%.

Molecule `O=S(=O)(Oc1ccc2[nH]c(Nc3ccccc3)nc2c1)c1ccc(NC2CCCC2)cc1` [Example 70-a, 4-Cyclopentylamino-benzenesulfonic acid 2-phenylamino-1H-benzoimidazol-5-yl ester] registered a 50% inhibitory concentration (IC50) of 1.18 µM. On the same count and under the same terms, with `COCCOc1ccc(S(=O)(=O)Oc2ccc3nc(NC(=O)OC)[nH]c3c2)cc1` [Example 64-c, 4-(2-Methoxy-ethoxy)-benzenesulfonic acid 2-methoxycarbonylamino-3H-benzoimidazol-5-yl ester] the figure was 4.37 µM.

`COC(=O)Nc1nc2cc(OS(=O)(=O)c3cc(F)ccc3C)ccc2[nH]1` [Example 62-q, 5-Fluoro-2-methyl-benzenesulfonic acid 2-methoxycarbonylamino-1H-benzoimidazol-5-yl ester] registered an IC50 of 1.6 µM. This IC50 is about 2.7-fold lower than that of the molecule before. As for `O=C(NCCF)Nc1nc2ccc(OS(=O)(=O)c3ccc(NCCF)cc3)cc2[nH]1` [Example 80-c, 4-(2-Fluoro-ethylamino)-benzenesulfonic acid 2-[3-(2-fluoro-ethyl)-ureido]-3H-benzoimidazol-5-yl ester], the inhibition at 10 µM was found to be 100%.

`CC(=O)NCCNc1ccc(S(=O)(=O)Oc2ccc3[nH]c(NC(=O)C4CC4)nc3c2)cc1` [Example 60-ac, 4-(2-Acetylamino-ethylamino)-benzenesulfonic acid 2-(cyclopropanecarbonyl-amino)-1H-benzoimidazol-5-yl ester]: half-maximal inhibition (IC50) required 0.8 µM. As to `COC(=O)Nc1nc2ccc(OS(=O)(=O)c3ccc(OCCN4CCCCC4)cc3)cc2[nH]1` [Example 64-d, 4-(2-piperidin-1-yl-ethoxy)-benzenesulfonic acid 2-methoxycarbonylamino-3H-benzoimidazol-5-yl ester], the inhibition at 10 µM worked out at 50%. In turn, `O=C(Nc1nc2cc(OS(=O)(=O)c3ccc(NCc4cccnc4)cc3)ccc2[nH]1)C1CC1` [Example 60-m, 4-[(Pyridin-3-yl-methyl)-amino]-benzenesulfonic acid 2-(cyclopropanecarbonyl-amino)-1H-benzoimidazol-5-yl ester] returned a 50% inhibitory concentration (IC50) of 0.5 µM. For the molecule `COC(=O)Nc1nc2cc(OS(=O)(=O)c3ccc(NC(C)CO)cc3)ccc2[nH]1` (stereo not drawn) [Example 8, Methyl-5-(4-[1-methyl,2-hydroxyethyl]aminophenyl-sulfonyloxy) benzimidazole-2-carbamate], the IC50 is 1.1 µM. The same measure, in the same setting: the result for `CCNCCNc1ccc(S(=O)(=O)Oc2ccc3[nH]c(NC(=O)C4CC4)nc3c2)cc1` [Example 60-s, 4-(2-Ethylamino-ethylamino)-benzenesulfonic acid 2-(cyclopropanecarbonyl-amino)-1H-benzoimidazol-5-yl ester] reads 8 µM.

For `COCC(O)CNC(=O)Nc1nc2ccc(OS(=O)(=O)c3ccc(NCC(O)COC)cc3)cc2[nH]1` (stereo not drawn) [Example 80-m, 4-(2-Hydroxy-3-methoxy-propylamino)-benzenesulfonic acid 2-[3-(2-hydroxy-3-methoxy-propyl)-ureido]-3H-benzoimidazol-5-yl ester], the inhibition at 10 µM turned out to be 103%.

The record behind these values is US20050014811A1, “Substituted benzimidazole compounds and their use for the treatment of cancer” (Aventis Pharma S.A., priority 2001, published 2005).
